The source of these data is ChEMBL document CHEMBL4680270, “Synthesis and biological evaluation of novel pyrazoline derivatives containing indole skeleton as anti-cancer agents targeting topoisomerase II” (Eur J Med Chem, 2020).

Calls of active or inactive are those of the source. The calls are words filed in the database; no cut-off is given here.

For one assay, the system named is MGC-803. The assay can be described thus: Antiproliferative activity against human MGC-803 cells assessed as reduction in cell growth incubated for 48 hrs by MTT assay. Format: functional, cell-based. The settings on record: MGC-803, 48 h.
In the case of `Cc1cc2c(cc1F)C1=NN(c3ccccc3)C(c3c[nH]c4ccccc34)C1CS2` (stereo not drawn), the IC50 turned out to be 27.8 µM.
Same read-out and setting: the result for `COc1cc([C@@H]2c3cc4c(cc3[C@@H](O[C@@H]3O[C@@H]5CO[C@@H](C)O[C@H]5[C@H](O)[C@H]3O)[C@H]3COC(=O)[C@H]23)OCO4)cc(OC)c1O` [ETOPOSIDE] reads 11.2 µM; that for `COc1ccc2c(c1)C1=NN(c3ccccc3)C(c3c[nH]c4ccccc34)C1CS2` (stereo not drawn), 36.4 µM.
The same measure, in the same setting: for `Clc1ccc2c(c1)C1=NN(c3ccccc3)C(c3c[nH]c4ccc(Br)cc34)C1CS2` (stereo not drawn) the value was 29.3 µM; for `Cc1cccc2c1SCC1C2=NN(c2ccccc2)C1c1c[nH]c2ccccc12` (stereo not drawn), 28 µM.
For `Fc1ccc2c(c1)C1=NN(c3ccccc3)C(c3c[nH]c4ccccc34)C1CS2` (stereo not drawn), the IC50 was found to be 39.3 µM.
The same measure, in the same setting: the result for `Cc1ccc(C)c2c1SCC1C2=NN(c2ccccc2)C1c1c[nH]c2ccccc12` (stereo not drawn) reads 35.6 µM.

In the next assay the test system is BEL-7404 tumor cell line. The assay can be described thus: Antiproliferative activity against human Bel-7404 tumor cell line assessed as reduction in cell growth incubated for 48 hrs by MTT assay. The class given is functional, cell-based. The settings on record: BEL-7404, 48 h. (Formazan colour is commonly taken as a measure of viable cells.)
Consider `Cc1cc2c(cc1F)C1=NN(c3ccccc3)C(c3c[nH]c4ccccc34)C1CS2` (stereo not drawn), for which the IC50 turned out to be 61.9 µM.
On the same count and under the same terms, for `COc1cc([C@@H]2c3cc4c(cc3[C@@H](O[C@@H]3O[C@@H]5CO[C@@H](C)O[C@H]5[C@H](O)[C@H]3O)[C@H]3COC(=O)[C@H]23)OCO4)cc(OC)c1O` [ETOPOSIDE] the value was 7.76 µM; for `COc1ccc2c(c1)C1=NN(c3ccccc3)C(c3c[nH]c4ccccc34)C1CS2` (stereo not drawn), > 120 µM; for `Clc1ccc2c(c1)C1=NN(c3ccccc3)C(c3c[nH]c4ccc(Br)cc34)C1CS2` (stereo not drawn), 32.1 µM.
For the compound `Cc1cccc2c1SCC1C2=NN(c2ccccc2)C1c1c[nH]c2ccccc12` (stereo not drawn), the IC50 is 57.3 µM.
Regarding `Fc1ccc2c(c1)C1=NN(c3ccccc3)C(c3c[nH]c4ccccc34)C1CS2` (stereo not drawn), the IC50 amounted to 50.2 µM.
The same measure, in the same setting: the result for `Cc1ccc(C)c2c1SCC1C2=NN(c2ccccc2)C1c1c[nH]c2ccccc12` (stereo not drawn) reads 37.5 µM.

The next assay has as its target T1, DNA topoisomerase 1 (Homo sapiens) (UniProt P11387).
T1 sequence (whole entry): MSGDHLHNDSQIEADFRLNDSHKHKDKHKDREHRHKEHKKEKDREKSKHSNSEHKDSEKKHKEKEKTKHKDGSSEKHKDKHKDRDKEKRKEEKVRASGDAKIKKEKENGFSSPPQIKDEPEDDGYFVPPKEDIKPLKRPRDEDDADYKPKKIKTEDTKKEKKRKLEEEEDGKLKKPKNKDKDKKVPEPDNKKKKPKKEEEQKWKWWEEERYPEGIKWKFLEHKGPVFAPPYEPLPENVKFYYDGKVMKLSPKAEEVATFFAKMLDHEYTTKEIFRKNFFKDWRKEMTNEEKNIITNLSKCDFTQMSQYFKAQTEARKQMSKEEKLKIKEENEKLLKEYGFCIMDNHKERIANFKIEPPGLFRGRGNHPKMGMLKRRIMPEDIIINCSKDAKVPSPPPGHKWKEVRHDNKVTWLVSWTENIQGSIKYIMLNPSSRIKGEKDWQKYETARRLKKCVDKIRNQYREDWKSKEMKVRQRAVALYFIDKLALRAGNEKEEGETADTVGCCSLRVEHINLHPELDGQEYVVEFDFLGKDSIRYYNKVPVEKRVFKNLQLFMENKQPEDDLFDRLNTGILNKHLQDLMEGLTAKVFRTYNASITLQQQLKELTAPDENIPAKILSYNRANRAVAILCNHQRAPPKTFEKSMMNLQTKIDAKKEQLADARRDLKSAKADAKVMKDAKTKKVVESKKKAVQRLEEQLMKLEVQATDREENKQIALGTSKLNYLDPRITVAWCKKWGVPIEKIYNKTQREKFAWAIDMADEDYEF
The assay can be described thus: Inhibition of human topoisomerase 1 assessed as decrease in relaxation of supercoiled pBR322 plasmid DNA at 100 uM using pBR322 plasmid DNA as substrate incubated for 30 mins by agarose gel electrophoresis.
Conditions: not given
As for `Cc1cc2c(cc1F)C1=NN(c3ccccc3)C(c3c[nH]c4ccccc34)C1CS2` (stereo not drawn), the inhibition entry is “inactive”.
The same measure, in the same setting: for `COc1ccc2c(c1)C1=NN(c3ccccc3)C(c3c[nH]c4ccccc34)C1CS2` (stereo not drawn) the value was “inactive”.
Still for that read-out and setting: for `Clc1ccc2c(c1)C1=NN(c3ccccc3)C(c3c[nH]c4ccc(Br)cc34)C1CS2` (stereo not drawn) the value was “inactive”; for `Cc1cccc2c1SCC1C2=NN(c2ccccc2)C1c1c[nH]c2ccccc12` (stereo not drawn), “inactive”.
With `Fc1ccc2c(c1)C1=NN(c3ccccc3)C(c3c[nH]c4ccccc34)C1CS2` (stereo not drawn), the inhibition result is “inactive”.
The same measure, in the same setting: the result for `Cc1ccc(C)c2c1SCC1C2=NN(c2ccccc2)C1c1c[nH]c2ccccc12` (stereo not drawn) reads “inactive”.

The test system of a further assay is MCF7. The assay can be described thus: Antiproliferative activity against human MCF7 cells assessed as reduction in cell growth incubated for 48 hrs by MTT assay. Format: functional, cell-based. The settings on record: MCF7, 48 h.
For `Cc1cc2c(cc1F)C1=NN(c3ccccc3)C(c3c[nH]c4ccccc34)C1CS2` (stereo not drawn), the IC50 turned out to be 47.8 µM.
The same measure, in the same setting: for `COc1cc([C@@H]2c3cc4c(cc3[C@@H](O[C@@H]3O[C@@H]5CO[C@@H](C)O[C@H]5[C@H](O)[C@H]3O)[C@H]3COC(=O)[C@H]23)OCO4)cc(OC)c1O` [ETOPOSIDE] the value was 1.45 µM; for `COc1ccc2c(c1)C1=NN(c3ccccc3)C(c3c[nH]c4ccccc34)C1CS2` (stereo not drawn), > 120 µM.
Same read-out and setting: the result for `Clc1ccc2c(c1)C1=NN(c3ccccc3)C(c3c[nH]c4ccc(Br)cc34)C1CS2` (stereo not drawn) reads 37.1 µM.
Same read-out and setting: the result for `Cc1cccc2c1SCC1C2=NN(c2ccccc2)C1c1c[nH]c2ccccc12` (stereo not drawn) reads 38 µM; that for `Fc1ccc2c(c1)C1=NN(c3ccccc3)C(c3c[nH]c4ccccc34)C1CS2` (stereo not drawn), 37.8 µM; that for `Cc1ccc(C)c2c1SCC1C2=NN(c2ccccc2)C1c1c[nH]c2ccccc12` (stereo not drawn), 37.7 µM.

In the next assay the test system is MGC-803. The assay can be described thus: Inhibition of topoisomerase 2 purified from human MGC-803 cells assessed as decrease in relaxation of supercoiled pBR322 plasmid DNA at 100 uM using pBR322 plasmid DNA as substrate incubated for 30 mins by agarose gel electrophoresis. The class given is cell-free.
Conditions: not given
For the compound `Cc1cc2c(cc1F)C1=NN(c3ccccc3)C(c3c[nH]c4ccccc34)C1CS2` (stereo not drawn), the inhibition entry is “Active”.
With `COc1ccc2c(c1)C1=NN(c3ccccc3)C(c3c[nH]c4ccccc34)C1CS2` (stereo not drawn), the inhibition entry is “Active”.
`Cc1cccc2c1SCC1C2=NN(c2ccccc2)C1c1c[nH]c2ccccc12` (stereo not drawn): the inhibition entry was “Active”.
For `Fc1ccc2c(c1)C1=NN(c3ccccc3)C(c3c[nH]c4ccccc34)C1CS2` (stereo not drawn), the inhibition result was “Active”.
For the compound `Cc1ccc(C)c2c1SCC1C2=NN(c2ccccc2)C1c1c[nH]c2ccccc12` (stereo not drawn), the inhibition entry was “Active”.

For a further assay, the system named is MGC-803. The assay can be described thus: Inhibition of topoisomerase 2 purified from human MGC-803 cells assessed as decrease in relaxation of supercoiled pBR322 plasmid DNA at 20 uM using pBR322 plasmid DNA as substrate incubated for 30 mins by agarose gel electrophoresis. The class given is cell-free.
Conditions: not given
Consider `Fc1ccc2c(c1)C1=NN(c3ccccc3)C(c3c[nH]c4ccccc34)C1CS2` (stereo not drawn), for which the inhibition entry was “Active”.
For the compound `Cc1ccc(C)c2c1SCC1C2=NN(c2ccccc2)C1c1c[nH]c2ccccc12` (stereo not drawn), the inhibition entry is “Active”.

The next assay relates to HeLa. The assay can be described thus: Antiproliferative activity against human HeLa cells assessed as reduction in cell growth incubated for 48 hrs by MTT assay. Format: functional, cell-based.
Conditions: not given
As for `Cc1cc2c(cc1F)C1=NN(c3ccccc3)C(c3c[nH]c4ccccc34)C1CS2` (stereo not drawn), the IC50 stood at 41.1 µM.
Regarding `COc1cc([C@@H]2c3cc4c(cc3[C@@H](O[C@@H]3O[C@@H]5CO[C@@H](C)O[C@H]5[C@H](O)[C@H]3O)[C@H]3COC(=O)[C@H]23)OCO4)cc(OC)c1O` [ETOPOSIDE], the IC50 came to 5.35 µM.
Same read-out and setting: for `COc1ccc2c(c1)C1=NN(c3ccccc3)C(c3c[nH]c4ccccc34)C1CS2` (stereo not drawn) the value was > 120 µM; for `Clc1ccc2c(c1)C1=NN(c3ccccc3)C(c3c[nH]c4ccc(Br)cc34)C1CS2` (stereo not drawn), 35.1 µM; for `Cc1cccc2c1SCC1C2=NN(c2ccccc2)C1c1c[nH]c2ccccc12` (stereo not drawn), 37 µM.
Same read-out and setting: for `Fc1ccc2c(c1)C1=NN(c3ccccc3)C(c3c[nH]c4ccccc34)C1CS2` (stereo not drawn) the value was 50 µM.
The same measure, in the same setting: for `Cc1ccc(C)c2c1SCC1C2=NN(c2ccccc2)C1c1c[nH]c2ccccc12` (stereo not drawn) the value was 39.7 µM.

System in the next assay: not listed separately
The assay can be described thus: Cytotoxicity against […] tumor cell line assessed as reduction in cell viability incubated for 48 hrs by MTT assay. The settings on record: L929, 48 h.
Take `Cc1cc2c(cc1F)C1=NN(c3ccccc3)C(c3c[nH]c4ccccc34)C1CS2` (stereo not drawn): the IC50 worked out at 150 µM.
`COc1cc([C@@H]2c3cc4c(cc3[C@@H](O[C@@H]3O[C@@H]5CO[C@@H](C)O[C@H]5[C@H](O)[C@H]3O)[C@H]3COC(=O)[C@H]23)OCO4)cc(OC)c1O` [ETOPOSIDE]: the IC50 was found to be 80.4 µM.
Still for that read-out and setting: the result for `COc1ccc2c(c1)C1=NN(c3ccccc3)C(c3c[nH]c4ccccc34)C1CS2` (stereo not drawn) reads 120 µM; that for `Clc1ccc2c(c1)C1=NN(c3ccccc3)C(c3c[nH]c4ccc(Br)cc34)C1CS2` (stereo not drawn), 154 µM.
For `Cc1cccc2c1SCC1C2=NN(c2ccccc2)C1c1c[nH]c2ccccc12` (stereo not drawn), the IC50 came to 189 µM.
On the same count and under the same terms, the result for `Fc1ccc2c(c1)C1=NN(c3ccccc3)C(c3c[nH]c4ccccc34)C1CS2` (stereo not drawn) reads 175 µM.
Turning to `Cc1ccc(C)c2c1SCC1C2=NN(c2ccccc2)C1c1c[nH]c2ccccc12` (stereo not drawn), the IC50 came out at 183 µM.

Usually IC50 stands for the concentration that gives 50% inhibition.
